# Tests used:
# Assay type in all cases: biochemical
# JAK2 = target: T1, JAK2 (Homo sapiens, UniProt O60674); assay: JAK2 kinase assay (HTRF, inhibition of phosphorylation of a synthetic peptide); conditions: catalytic domain, His-tag; 4 μM ATP (Km); read-out: JAK2 kinase inhibitory activity (EC50)
# T1 construct: All four purified enzymes contain only the catalytic domain; His (N); purchased Carna Biosciences, Inc; host or cells: baculovirus expression system
# Procedure: (§1) JAK1, JAK2, JAK3 and TYK2 Kinase Assays:
# (§2) Human baculovirus-expressed JAK1, 2, 3 and TYK2 were purchased from Carna Biosciences, Inc. All four purified enzymes contain only the catalytic domain. JAK1 (aa 850-1154) and TYK2 (aa 871-1187) are expressed with an N-terminally fused GST-tag, and JAK2 and JAK3 with an N-terminally fused His-tag. Inhibition of phosphorylation of a synthetic peptide was measured in an HTRF-based assay using the TK substrate-Biotin from the CisbioHTRFKinEASE TK kit. First, 2 μl of TK solution (TK substrate-biotin in kinase buffer [1× enzymatic buffer from HTRFKinEASE TK kit, 1 mM DTT]) is added to a plate containing 1 μl prediluted compound (final assay concentration DMSO: 0.75%). Then, 5 μl kinase-ATP mix (prepared in kinase buffer) is added to the wells and the plates are incubated at RT for 20-30 min. For all four kinases a concentration of ATP that corresponded to the Km for ATP was used. The final concentrations of buffers, substrate, kinase and ATP were: JAK1: 50 mMHepes buffer pH 7.0, 0.01% BSA, 10 mM MgCl2, 1 mM DTT, 7 μM ATP, 50 nMSEB, 1 μM TK Substrate-Biotin and 5 ng JAK1; JAK2: 50 mM Hepes buffer pH 7.0, 0.01% BSA, 5 mM MgCl2, 1 mM DTT, 4 μM ATP, 1 μM TK Substrate-Biotin and 0.1 ng JAK2; JAK3: 50 mMHepes buffer pH 7.0, 0.01% BSA, 5 mM MgCl2, 1 mM DTT, 2 μM ATP, 1 μM TK Substrate-Biotin and 0.3 ng JAK3; TYK2: 50 mMHepes buffer pH 7.0, 0.01% BSA, 5 mM MgCl2, 1 mM DTT, 13 μM ATP, 50 nMSEB, 1 μM TK Substrate-Biotin and 0.8 ng TYK2. Thereafter, the kinase reaction is stopped by adding 4 μl detection mix (final concentrations: 50 mM Hepes buffer pH 7.0, 0.01% BSA, 0.8 M KF, 20 mM EDTA, 42 nM Streptavidin-XL665 and 1:400 STKAbCryptate) and the plates are incubated overnight in the dark. The HTRF signal is read using an Envision plate reader.
# JAK1 = target: T2, JAK1 (Homo sapiens, UniProt P23458); assay: JAK1 kinase assay (HTRF, inhibition of phosphorylation of a synthetic peptide); conditions: catalytic domain aa 850-1154, GST-tag; 7 μM ATP (Km); read-out: JAK1 kinase inhibitory activity (EC50)
# T2 construct: JAK1 (aa 850-1154) and TYK2 (aa 871-1187) are expressed with an N-terminally fused GST-tag; GST (N); purchased Carna Biosciences, Inc; host or cells: baculovirus expression system
# Procedure: as §1, §2
# JAK3 = target: T3, JAK3 (Homo sapiens, UniProt P52333); assay: JAK3 kinase assay (HTRF, inhibition of phosphorylation of a synthetic peptide); conditions: catalytic domain, His-tag; 2 μM ATP (Km); read-out: JAK3 kinase inhibitory activity (EC50)
# T3 construct: All four purified enzymes contain only the catalytic domain; His (N); purchased Carna Biosciences, Inc; host or cells: baculovirus expression system
# Procedure: as §1, §2
# T2 sequence (P23458 850-1154): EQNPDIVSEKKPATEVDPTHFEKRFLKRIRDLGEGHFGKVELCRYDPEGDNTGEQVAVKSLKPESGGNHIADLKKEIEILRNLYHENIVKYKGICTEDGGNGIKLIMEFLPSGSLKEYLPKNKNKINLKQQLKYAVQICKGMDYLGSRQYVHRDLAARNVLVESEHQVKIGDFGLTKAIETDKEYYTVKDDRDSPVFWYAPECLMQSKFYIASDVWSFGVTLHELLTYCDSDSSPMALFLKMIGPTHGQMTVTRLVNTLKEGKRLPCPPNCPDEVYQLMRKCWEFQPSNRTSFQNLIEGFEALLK
# T1 sequence (O60674 849-1124 limits assumed): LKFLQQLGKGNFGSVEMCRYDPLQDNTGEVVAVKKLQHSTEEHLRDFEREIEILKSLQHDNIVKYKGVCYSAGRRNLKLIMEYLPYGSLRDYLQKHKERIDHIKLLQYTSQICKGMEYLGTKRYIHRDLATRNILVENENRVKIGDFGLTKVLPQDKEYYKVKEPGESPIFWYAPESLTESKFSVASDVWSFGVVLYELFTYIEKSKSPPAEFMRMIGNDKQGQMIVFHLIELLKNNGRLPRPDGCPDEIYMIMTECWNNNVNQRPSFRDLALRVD
# T3 sequence (P52333 822-1111 limits assumed): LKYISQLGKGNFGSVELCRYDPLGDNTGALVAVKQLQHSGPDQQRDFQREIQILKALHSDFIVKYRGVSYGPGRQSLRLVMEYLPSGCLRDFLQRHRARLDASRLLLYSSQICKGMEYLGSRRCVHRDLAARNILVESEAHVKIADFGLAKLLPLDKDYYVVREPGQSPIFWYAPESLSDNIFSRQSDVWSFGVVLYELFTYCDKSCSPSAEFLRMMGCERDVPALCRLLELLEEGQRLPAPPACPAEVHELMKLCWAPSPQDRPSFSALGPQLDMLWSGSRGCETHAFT
SMILES,EC50 (JAK2),EC50 (JAK1),EC50 (JAK3)
"Cc1nnc(C(=O)N2CCCN(c3ncnc4[nH]ccc34)CC23CC3)o1 [Example 154, (5-methyl-1,3,4-oxadiazol-2-yl)-[5-(7H-pyrrolo[2,3-d]pyrimidin-4-yl)-5,9-diazaspiro[2.6]nonan-9-yl]methanone]",< 100 nM,100 to 1000 nM,100 to 1000 nM
"O=C(c1cnco1)N1CCN(c2ncnc3[nH]ccc23)CC2(CC2)C1 [Example 155, oxazol-5-yl-[5-(7H-pyrrolo[2,3-d]pyrimidin-4-yl)-5,8-diazaspiro[2.6]nonan-8-yl]methanone]",100 to 1000 nM,100 to 1000 nM,100 to 1000 nM
"O=C(c1cnco1)N1CCCN(c2ncnc3[nH]ccc23)CC12CC2 [Example 156, oxazol-5-yl-[5-(7H-pyrrolo[2,3-d]pyrimidin-4-yl)-5,9-diazaspiro[2.6]nonan-9-yl]methanone]",100 to 1000 nM,100 to 1000 nM,100 to 1000 nM
"O=C(c1cn[nH]c1)N1CCN(c2ncnc3[nH]ccc23)CC2(CC2)C1 [Example 157, 1H-pyrazol-4-yl-[5-(7H-pyrrolo[2,3-d]pyrimidin-4-yl)-5,8-diazaspiro[2.6]nonan-8-yl]methanone]",100 to 1000 nM,100 to 1000 nM,100 to 1000 nM
"O=C(Cc1ccc(F)cc1)N1CCCN(c2ncnc3[nH]ccc23)CC12CC2 [Example 159, 2-(4-fluorophenyl)-1-[5-(7H-pyrrolo[2,3-d]pyrimidin-4-yl)-5,9-diazaspiro[2.6]nonan-9-yl]ethanone]",< 100 nM,100 to 1000 nM,> 1000 nM
"O=C(c1cncnc1)N1CCN(c2ncnc3[nH]ccc23)CC2(CC2)C1 [Example 160, pyrimidin-5-yl-[5-(7H-pyrrolo[2,3-d]pyrimidin-4-yl)-5,8-diazaspiro[2.6]nonan-8-yl]methanone]",100 to 1000 nM,> 1000 nM,> 1000 nM
"O=C(c1cncnc1)N1CCCN(c2ncnc3[nH]ccc23)CC12CC2 [Example 161, pyrimidin-5-yl-[5-(7H-pyrrolo[2,3-d]pyrimidin-4-yl)-5,9-diazaspiro[2.6]nonan-9-yl]methanone]",100 to 1000 nM,100 to 1000 nM,> 1000 nM
"N#Cc1ccccc1C(=O)N1CCCN(c2ncnc3[nH]ccc23)CC12CC2 [Example 162, 2-[5-(7H-pyrrolo[2,3-d]pyrimidin-4-yl)-5,9-diazaspiro[2.6]nonane-9-carbonyl]benzonitrile]",100 to 1000 nM,> 1000 nM,> 1000 nM
"O=C(c1cccc(O)n1)N1CCN(c2ncnc3[nH]ccc23)CC2(CC2)C1 [Example 163, (6-hydroxy-2-pyridyl)-[5-(7H-pyrrolo[2,3-d]pyrimidin-4-yl)-5,8-diazaspiro[2.6]nonan-8-yl]methanone]",100 to 1000 nM,100 to 1000 nM,> 1000 nM
"O=C(c1cccc(O)n1)N1CCCN(c2ncnc3[nH]ccc23)CC12CC2 [Example 164, (6-hydroxy-2-pyridyl)-[5-(7H-pyrrolo[2,3-d]pyrimidin-4-yl)-5,9-diazaspiro[2.6]nonan-9-yl]methanone]",100 to 1000 nM,100 to 1000 nM,> 1000 nM
"O=C(c1ccncn1)N1CCN(c2ncnc3[nH]ccc23)CC2(CC2)C1 [Example 165, pyrimidin-4-yl-[5-(7H-pyrrolo[2,3-d]pyrimidin-4-yl)-5,8-diazaspiro[2.6]nonan-8-yl]methanone]",100 to 1000 nM,> 1000 nM,> 1000 nM
"O=C(c1ccncn1)N1CCCN(c2ncnc3[nH]ccc23)CC12CC2 [Example 166, pyrimidin-4-yl-[5-(7H-pyrrolo[2,3-d]pyrimidin-4-yl)-5,9-diazaspiro[2.6]nonan-9-yl]methanone]",< 100 nM,< 100 nM,100 to 1000 nM
"O=C(Cc1ccccn1)N1CCN(c2ncnc3[nH]ccc23)CC2(CC2)C1 [Example 167, 2-(2-pyridyl)-1-[5-(7H-pyrrolo[2,3-d]pyrimidin-4-yl)-5,8-diazaspiro[2.6]nonan-8-yl]ethanone]",100 to 1000 nM,100 to 1000 nM,> 1000 nM
"Cc1nccnc1C(=O)N1CCN(c2ncnc3[nH]ccc23)CC2(CC2)C1 [Example 168, (3-methylpyrazin-2-yl)-[5-(7H-pyrrolo[2,3-d]pyrimidin-4-yl)-5,8-diazaspiro[2.6]nonan-8-yl]methanone]",> 1000 nM,> 1000 nM,> 1000 nM
"Cc1cncc(C(=O)N2CCN(c3ncnc4[nH]ccc34)CC3(CC3)C2)n1 [Example 169, (6-methylpyrazin-2-yl)-[5-(7H-pyrrolo[2,3-d]pyrimidin-4-yl)-5,8-diazaspiro[2.6]nonan-8-yl]methanone]",100 to 1000 nM,> 1000 nM,> 1000 nM

# More lines, now with the values ahead:
EC50 (JAK2),EC50 (JAK1),EC50 (JAK3),SMILES
> 1000 nM,> 1000 nM,> 1000 nM,"Cc1noc(C)c1C(=O)N1CCN(c2ncnc3[nH]ccc23)CC2(CC2)C1 [Example 170, (3,5-dimethylisoxazol-4-yl)-[5-(7H-pyrrolo[2,3-d]pyrimidin-4-yl)-5,8-diazaspiro[2.6]nonan-8-yl]methanone]"
> 1000 nM,100 to 1000 nM,> 1000 nM,"Cc1cc(C(=O)N2CCN(c3ncnc4[nH]ccc34)CC3(CC3)C2)ccn1 [Example 171, (2-methyl-4-pyridyl)-[5-(7H-pyrrolo[2,3-d]pyrimidin-4-yl)-5,8-diazaspiro[2.6]nonan-8-yl]methanone]"
100 to 1000 nM,100 to 1000 nM,> 1000 nM,"Cc1cc(C(=O)N2CCCN(c3ncnc4[nH]ccc34)CC23CC3)ccn1 [Example 172, (2-methyl-4-pyridyl)-[5-(7H-pyrrolo[2,3-d]pyrimidin-4-yl)-5,9-diazaspiro[2.6]nonan-9-yl]methanone]"
< 100 nM,100 to 1000 nM,100 to 1000 nM,"O=C(Cc1ccccc1Cl)N1CCN(c2ncnc3[nH]ccc23)CC2(CC2)C1 [Example 173, 2-(2-chlorophenyl)-1-[5-(7H-pyrrolo[2,3-d]pyrimidin-4-yl)-5,8-diazaspiro[2.6]nonan-8-yl]ethanone]"
100 to 1000 nM,100 to 1000 nM,> 1000 nM,"O=C(Cc1ccccc1Cl)N1CCCN(c2ncnc3[nH]ccc23)CC12CC2 [Example 174, 2-(2-chlorophenyl)-1-[5-(7H-pyrrolo[2,3-d]pyrimidin-4-yl)-5,9-diazaspiro[2.6]nonan-9-yl]ethanone]"
100 to 1000 nM,100 to 1000 nM,100 to 1000 nM,"Cc1cc(C(=O)N2CCN(c3ncnc4[nH]ccc34)CC3(CC3)C2)no1 [Example 175, (5-methylisoxazol-3-yl)-[5-(7H-pyrrolo[2,3-d]pyrimidin-4-yl)-5,8-diazaspiro[2.6]nonan-8-yl]methanone]"
< 100 nM,100 to 1000 nM,100 to 1000 nM,"O=C(c1ccc(Cl)cc1)N1CCN(c2ncnc3[nH]ccc23)CC2(CC2)C1 [Example 176, (4-chlorophenyl)-[5-(7H-pyrrolo[2,3-d]pyrimidin-4-yl)-5,8-diazaspiro[2.6]nonan-8-yl]methanone]"
100 to 1000 nM,100 to 1000 nM,100 to 1000 nM,"O=C(c1ccno1)N1CCN(c2ncnc3[nH]ccc23)CC2(CC2)C1 [Example 177, isoxazol-5-yl-[5-(7H-pyrrolo[2,3-d]pyrimidin-4-yl)-5,8-diazaspiro[2.6]nonan-8-yl]methanone]"

# Reference: patent US9586961B2, “Homopiperazine derivatives as protein tyrosine kinase inhibitors and pharmaceutical use thereof” (LEO PHARMA A/S, priority 2010, dated 2017)
